In article PMC9462843 (Protein Science : A Publication of the Protein Society, 2022):

Experiments:
Type in all cases: biochemical
[1] = target: T1, BsIMPDH (Bacillus subtilis IMPDH) (Bacillus subtilis, UniProt P21879); experiment: IMPDH activity assay, guanine nucleotide titration (NADH fluorescence); settings: for K i,app: 0.25 mM ATP present; for effect on the catalytic activity in vitro: nucleotide alone (no ATP); for IC50: read-out: Estimated IC50
T1 construct: Open reading frames of the different enzymes were amplified by PCR using genomic DNA as template; 8xHis (N, cleaved yes); made in house; host or cells: E. coli BL21 (DE3)
T1 sequence (P21879 whole entry): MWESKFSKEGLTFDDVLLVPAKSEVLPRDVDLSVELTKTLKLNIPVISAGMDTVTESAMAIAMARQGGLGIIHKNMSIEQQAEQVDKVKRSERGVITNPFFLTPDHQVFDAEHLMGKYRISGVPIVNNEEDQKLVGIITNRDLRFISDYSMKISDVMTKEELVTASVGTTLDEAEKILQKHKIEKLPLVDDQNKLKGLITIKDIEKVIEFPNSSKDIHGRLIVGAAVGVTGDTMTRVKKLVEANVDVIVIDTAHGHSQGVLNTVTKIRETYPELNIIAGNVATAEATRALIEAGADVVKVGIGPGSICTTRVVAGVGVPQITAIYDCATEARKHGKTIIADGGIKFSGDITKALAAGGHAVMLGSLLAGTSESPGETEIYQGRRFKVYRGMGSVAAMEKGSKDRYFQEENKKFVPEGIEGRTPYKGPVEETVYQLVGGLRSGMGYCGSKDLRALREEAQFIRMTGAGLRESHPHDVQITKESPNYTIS
Experimental: (§1) IMPDH activity was assayed using 384‐well microtiter plates by monitoring the appearance of NADH by fluorescence (λ exc = 340 nm and λ em = 460 nm, using a 10 nm slit window for both excitation and emission).
(§2) The total amount of MgCl2 was adjusted for each nucleotide concentration to keep 1 mM free Mg^2+ constant concentration, as previously described.[6] The experimental data were fitted to the Michaelis–Menten and allosteric sigmoidal equations using GraphPad Prism (GraphPad Software).

[2] = target: T2, EcIMPDH (Escherichia coli IMPDH) (Escherichia coli, UniProt P0ADG7); experiment: as above; settings: for effect on the catalytic activity in vitro: nucleotide alone (no ATP); for effect in vitro on the activity: even at millimolar concentrations, in presence or absence of ATP
T2 construct: Open reading frames of the different enzymes were amplified by PCR using genomic DNA as template; 8xHis (N, cleaved yes); made in house; host or cells: E. coli BL21 (DE3)
T2 sequence (P0ADG7 whole entry): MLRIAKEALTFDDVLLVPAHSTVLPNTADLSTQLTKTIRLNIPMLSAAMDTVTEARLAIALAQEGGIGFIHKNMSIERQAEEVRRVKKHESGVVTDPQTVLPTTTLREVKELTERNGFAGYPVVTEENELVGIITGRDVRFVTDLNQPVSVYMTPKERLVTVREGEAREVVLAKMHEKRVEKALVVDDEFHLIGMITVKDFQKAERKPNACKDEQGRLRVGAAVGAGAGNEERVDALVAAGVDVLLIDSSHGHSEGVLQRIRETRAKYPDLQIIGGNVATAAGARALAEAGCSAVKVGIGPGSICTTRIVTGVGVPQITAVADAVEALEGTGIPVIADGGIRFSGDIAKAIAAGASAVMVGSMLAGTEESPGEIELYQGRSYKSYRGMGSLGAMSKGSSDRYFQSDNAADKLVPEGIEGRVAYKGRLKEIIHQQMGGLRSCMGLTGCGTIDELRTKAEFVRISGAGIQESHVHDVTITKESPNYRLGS
Experimental: as §1, §2

[3] = target: T3, PaIMPDH (Pseudomonas aeruginosa IMPDH) (Pseudomonas aeruginosa, UniProt Q9HXM5); experiment: as above; settings: for effect on the catalytic activity in vitro: nucleotide alone (no ATP); for effect in vitro on the activity: even at millimolar concentrations, in presence or absence of ATP
T3 construct: Open reading frames of the different enzymes were amplified by PCR using genomic DNA as template; 8xHis (N, cleaved yes); made in house; host or cells: E. coli BL21 (DE3)
T3 sequence (Q9HXM5 1-489): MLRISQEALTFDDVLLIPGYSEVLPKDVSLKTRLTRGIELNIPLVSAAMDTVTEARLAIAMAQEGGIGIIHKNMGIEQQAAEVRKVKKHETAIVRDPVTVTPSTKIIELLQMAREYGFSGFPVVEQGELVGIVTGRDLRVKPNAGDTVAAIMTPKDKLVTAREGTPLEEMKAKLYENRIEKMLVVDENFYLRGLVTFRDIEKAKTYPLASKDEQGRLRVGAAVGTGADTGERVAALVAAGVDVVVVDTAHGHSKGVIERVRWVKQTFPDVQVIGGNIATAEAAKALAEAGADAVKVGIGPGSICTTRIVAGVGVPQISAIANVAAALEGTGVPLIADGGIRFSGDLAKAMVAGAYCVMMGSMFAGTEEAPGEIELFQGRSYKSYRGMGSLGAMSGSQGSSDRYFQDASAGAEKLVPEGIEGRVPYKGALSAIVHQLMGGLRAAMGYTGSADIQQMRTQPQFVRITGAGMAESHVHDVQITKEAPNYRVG
Experimental: as §1, §2

[4] = target: StcIMPDH (Streptomyces coelicolor IMPDH) (Streptomyces coelicolor, UniProt Q9L0I7); experiment: as above; settings: for K i,app: 0.25 mM ATP present; for effect on the catalytic activity in vitro: nucleotide alone (no ATP)
Sequence of StcIMPDH (Streptomyces coelicolor IMPDH) (Q9L0I7 entry or part of it): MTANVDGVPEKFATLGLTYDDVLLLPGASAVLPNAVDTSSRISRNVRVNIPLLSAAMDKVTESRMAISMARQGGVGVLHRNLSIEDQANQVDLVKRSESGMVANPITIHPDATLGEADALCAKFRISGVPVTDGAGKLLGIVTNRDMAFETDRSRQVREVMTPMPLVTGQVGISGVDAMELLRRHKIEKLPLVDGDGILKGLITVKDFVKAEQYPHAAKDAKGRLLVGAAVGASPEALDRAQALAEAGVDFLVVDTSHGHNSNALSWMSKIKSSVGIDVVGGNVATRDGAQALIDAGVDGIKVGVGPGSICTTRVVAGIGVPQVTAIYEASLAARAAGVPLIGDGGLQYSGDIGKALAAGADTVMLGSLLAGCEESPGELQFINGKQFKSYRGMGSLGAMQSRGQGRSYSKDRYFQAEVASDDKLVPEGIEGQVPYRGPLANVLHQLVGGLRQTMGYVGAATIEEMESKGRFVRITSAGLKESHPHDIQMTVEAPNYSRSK
Experimental: as §1, §2

EcIMPDH = target: T4, EcIMPDH (Escherichia coli, UniProt P0ADG7); experiment: GTP titration curves at physiological ATP concentration (Km shift); settings: read-out: GTP concentration needed to duplicate the Km value, constant 3 mM ATP, 0.5 mM NAD, 32°C
T4 construct: Open reading frames of the different enzymes were amplified by PCR using genomic DNA as template; 8xHis (N, cleaved yes); made in house; host or cells: E. coli BL21 (DE3)
T4 sequence (P0ADG7 whole entry): as the sequence (P0ADG7 whole entry) above
Experimental: as §1
(§3) 32 °C in buffer 100 mM Tr i s-HCl,pH8.0,100 mM KCl, 1 mM DTT, 1 mM free MgCl2, […]

PaIMPDH = target: T5, PaIMPDH (Pseudomonas aeruginosa, UniProt Q9HXM5); experiment: as above; settings: read-out: GTP concentration required to duplicate the Km value, constant 3 mM ATP, 0.5 mM NAD, 32°C
T5 construct: Open reading frames of the different enzymes were amplified by PCR using genomic DNA as template; 8xHis (N, cleaved yes); made in house; host or cells: E. coli BL21 (DE3)
Experimental: as §1, §3

[5] = target: T6, Helicobacter pylori IMPDH (HpIMPDH) (Helicobacter pylori, UniProt P56088); experiment: Effects of guanine nucleotides on the catalytic activity of HpIMPDH in vitro; settings: 0.25 mM ATP + 0.5 mM (p)ppGpp, 32°C (Figure S12)
T6 construct: Open reading frames of the different enzymes were amplified by PCR using genomic DNA as template; 8xHis (N, cleaved yes); made in house; host or cells: E. coli BL21 (DE3)
T6 sequence (P56088 1-481): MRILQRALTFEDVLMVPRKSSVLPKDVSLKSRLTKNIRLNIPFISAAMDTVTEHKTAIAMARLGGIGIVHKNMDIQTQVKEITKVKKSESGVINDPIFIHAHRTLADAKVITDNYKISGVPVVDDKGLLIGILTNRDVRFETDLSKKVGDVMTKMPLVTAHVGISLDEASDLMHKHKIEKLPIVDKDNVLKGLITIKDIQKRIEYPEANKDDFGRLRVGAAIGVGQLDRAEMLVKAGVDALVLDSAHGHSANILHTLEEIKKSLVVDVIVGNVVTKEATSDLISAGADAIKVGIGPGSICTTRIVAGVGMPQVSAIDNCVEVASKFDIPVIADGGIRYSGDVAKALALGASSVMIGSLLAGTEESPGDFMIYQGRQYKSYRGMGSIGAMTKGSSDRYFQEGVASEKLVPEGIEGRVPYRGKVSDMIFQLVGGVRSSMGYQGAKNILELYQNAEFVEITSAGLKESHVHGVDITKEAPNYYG
Experimental: as §1
Supplemental Figure 12. Effects of guanine nucleotides on the catalytic activity of HpIMPDH in vitro.Normalized initialvelocity (V0) values calculated as the V0 in the absence of nucleotides divided by the corresponding values inthe presence of the indicated ones. The experiment was performed at 32 °C in buffer 100 mM Tr i s-HCl, pH 8.0, 100 mM KCl, 1 mM DTT, 1 mM free MgCl2, 50 nM enzyme, 0.5 mM NAD+ […]
Nucleotide concentrations were (from left to right): 0.5 mM
The Vo value used for normalization was 6.83 ± 0.1 nM/sec.
(1 picture or pasted object on this page, not shown here)

Nc1nc2c(ncn2[C@@H]2O[C@H](COP(=O)(O)OP(=O)(O)O)[C@@H](O)[C@H]2O)c(=O)[nH]1 [GDP]
K i,app ([1]; BsIMPDH): millimolar range
effect on the catalytic activity in vitro ([1]; BsIMPDH): did not have a significant effect
K i,app ([2]; 0.25 mM ATP present): mid‐micromolar range
effect on the catalytic activity in vitro [2]: did not have a significant effect
K i,app ([3]; 0.25 mM ATP present): mid‐micromolar range
effect on the catalytic activity in vitro [3]: did not have a significant effect
K i,app ([4]; StcIMPDH): millimolar range
effect on the catalytic activity in vitro ([4]; StcIMPDH): did not have a significant effect

Nc1nc2c(ncn2[C@@H]2O[C@H](COP(=O)(O)OP(=O)(O)OP(=O)(O)O)[C@@H](O)[C@H]2O)c(=O)[nH]1 [GTP]
K i,app ([1]; BsIMPDH): millimolar range
effect on the catalytic activity in vitro ([1]; BsIMPDH): did not have a significant effect
effect on the catalytic activity in vitro [2]: did not have a significant effect
effect on the catalytic activity in vitro [3]: did not have a significant effect
K i,app ([4]; StcIMPDH): millimolar range
effect on the catalytic activity in vitro ([4]; StcIMPDH): did not have a significant effect
GTP concentration doubling Km (EcIMPDH): 1.3 mM
GTP concentration doubling Km (PaIMPDH): 800 µM

Nc1nc2c(ncn2[C@@H]2O[C@H](COP(=O)(O)OP(=O)(O)O)[C@@H](OP(=O)(O)OP(=O)(O)O)[C@H]2O)c(=O)[nH]1 [ppGpp]
inhibition of catalytic activity (potency range) ([1]; BsIMPDH, combined with ATP): low micromolar range
effect on the catalytic activity in vitro ([1]; BsIMPDH): no significant effect
IC50 [1]: 8.9 ± 0.4 µM
effect in vitro on the activity [2]: no detectable effect
effect on the catalytic activity in vitro [2]: no significant effect
effect in vitro on the activity [3]: no detectable effect
effect on the catalytic activity in vitro [3]: no significant effect
IC50 [4]: 2000 ± 30 nM
inhibition of catalytic activity (potency range) ([4]; StcIMPDH, combined with ATP): low micromolar range
effect on the catalytic activity in vitro ([4]; StcIMPDH): no significant effect

Nc1nc2c(ncn2[C@@H]2O[C@H](COP(=O)(O)OP(=O)(O)OP(=O)(O)O)[C@@H](OP(=O)(O)OP(=O)(O)O)[C@H]2O)c(=O)[nH]1 [pppGpp]
IC50 [1]: 11.4 ± 1.2 µM
effect in vitro on the activity [2]: no detectable effect
effect in vitro on the activity [3]: no detectable effect
IC50 [4]: 1400 ± 30 nM

(p)ppGpp
effect on catalytic activity of HpIMPDH [5]: allosteric inhibition
